The structures appear in SMILES notation. ≈ marks a conversion by molar mass, not a printed value. Structures can show the parent of a compound that is named as a salt.

The results in this text go back to patent US8865734B2 (priority 2010, dated 2014).

In data set [1] the test system is in vitro grown Mycobacteria (M. tuberculosis). The experiment in a line: QUM: Quantification of in vitro grown Mycobacteria (in vitro growth fluorescence assay). The class given is cell-based. The following applies: Mycobacterium tuberculosis; MIC, 80% bacterial growth inhibition; in vitro growth; read-out: QUM. Summed up: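 Mycobacterium tuberculosis grown in vitro was quantified by fluorescence across compound dose responses. MIC is defined as the minimum concentration producing 80% growth inhibition.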

Data set [2] deals with M. tuberculosis inside the host macrophage. The experiment in a line: QIM: Quantification of Intracellular Mycobacteria (intracellular growth assay, phenotypic cell-based). The following applies: Mycobacterium tuberculosis; MIC, 80% bacterial growth inhibition; intracellular growth; read-out: QIM. In a few lines: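 Dose-response testing of intracellular mycobacterial replication in infected macrophages, a cell-based screening format; MIC is defined as the lowest concentration achieving 80% inhibition of bacterial growth.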

For orientation: melting point means the temperature, or range, at which the solid turns liquid. On to `CCNC(=O)c1c(CC)nc2ccc(Cl)cn12` [Compound 246, 6-Chloro-N,2-diethylimidazo[1,2-a]pyridine-3-carboxamide], for which the melting point is 176.7 °C. For the same compound, the MIC in data set [1] was over 20 µM.

As to `CCc1nc2c(C(F)(F)F)cccn2c1C(=O)NCc1ccc(N2CCOCC2)cc1` [Compound 323, 2-Ethyl-N-(4-morpholinobenzyl)-8-(trifluoromethyl)imidazo[1,2-a]pyridine-3-carboxamide], the melting point worked out at 200.6 °C. For the same compound, in data set [1], the MIC lay within 1 to 20 µM (≈ 0.432 to 8.65 µg/mL).

For the compound `CCc1nc2cc(Cl)ccn2c1C(=O)NCc1ccc(N2CCC(C)(C)CC2)cc1` [Compound 274], the melting point came to 121.3 °C. Moreover, the MIC in data set [1] is under 1 µM.

`CCc1nc2cc(Cl)ccn2c1C(=O)NCc1ccc(N2CCC3CCCCC3C2)cc1` (centres unmarked) [Compound 268, 7-Chloro-2-ethyl-N-(4-(octahydroisoquinolin-2(1H)-yl)benzyl)imidazo[1,2-a]pyridine-3-carboxamide] had a melting point of 174.2 °C. Besides, the MIC in data set [1] was under 1 µM.

On to `CCc1nc2cc(Cl)ccn2c1C(=O)NCc1ccc(N2CCN3CCCC3C2)cc1` (centres unmarked) [Compound 265, 7-Chloro-2-ethyl-N-(4-(hexahydropyrrolo[1,2-a]pyrazin-2(1H)-yl)benzyl)imidazo[1,2-a]pyridine-3-carboxamide], for which the melting point came to 159.1 °C. The MIC in data set [1] is over 20 µM.

`CCc1nc2cc(Cl)ccn2c1C(=O)NCc1cccc(-c2ccc(OC(F)(F)F)cc2)c1` [Compound 248, 7-Chloro-2-ethyl-N-((4′-(trifluoromethoxy)biphenyl-3-yl)methyl)imidazo[1,2-a]pyridine-3-carboxamide]: the melting point was determined as 192.6 °C. In addition, in data set [1], the MIC was under 1 µM.

`CCc1nc2ccc(Br)cn2c1C(=O)NCc1ccc(OCc2ccc(OC(F)(F)F)cc2)cc1` [Compound 259, 6-Bromo-2-ethyl-N-(4-(4-(trifluoromethoxy)benzyloxy)benzyl)imidazo[1,2-a]pyridine-3-carboxamide] registered a melting point of 189.7 °C. The MIC in data set [1] was under 1 µM.

In the case of `CCc1nc2ccc(Cl)cn2c1C(=O)NCc1ccc(N2CCC(F)(F)CC2)cc1` [Compound 277, 6-chloro-N-(4-(4,4-difluoropiperidin-1-yl)benzyl)-2-ethylimidazo[1,2-a]pyridine-3-carboxamide], the melting point stood at 194.2 °C. Moreover, in data set [1], the MIC fell in the range of 1 to 20 µM (≈ 0.433 to 8.66 µg/mL).

Turning to `CCc1nc2cc(Cl)ccn2c1C(=O)NCc1ccc(N2CCC(COc3ccc(OC(F)(F)F)cc3)CC2)cc1` [Compound 299, 7-Chloro-2-ethyl-N-(4-(4-((4-(trifluoromethoxy)phenoxy)methyl)piperidin-1-yl)benzyl)imidazo[1,2-a]pyridine-3-carboxamide], the melting point was determined as 189.5 °C. Further, the MIC in data set [1] is under 1 µM.

`CCc1nc2ccc(OC)cn2c1C(=O)NCc1ccc(N2CCN(c3ccc(F)cc3)CC2)cc1` [Compound 112, 2-Ethyl-N-(4-(4-(4-fluorophenyl)piperazin-1-yl)benzyl)-6-methoxyimidazo[1,2-a]pyridine-3-carboxamide] showed a melting point of 173.8 °C. For the same compound, the MIC in data set [1] is under 1 µM.

In turn, `CCc1nc2c(OC(F)F)cccn2c1C(=O)NCc1ccc(N2CCN(c3ccc(F)cc3)CC2)cc1` [Compound 304, 8-(Difluoromethoxy)-2-ethyl-N-(4-(4-(4-fluorophenyl)piperazin-1-yl)benzyl)imidazo[1,2-a]pyridine-3-carboxamide] had a melting point of 186.3 °C. For the same compound, in data set [1], the MIC is under 1 µM.

The compound `CCc1nc2ccc(Cl)cn2c1C(=O)NCC(C)C` [Compound 247, 6-Chloro-2-ethyl-N-isobutylimidazo[1,2-a]pyridine-3-carboxamide] showed a melting point of 162.2 °C. Further, the MIC in data set [1] is over 20 µM.

As to `CCc1nc2cc(C(F)(F)F)ccn2c1C(=O)NCc1ccc(N2CCOCC2)cc1` [Compound 322, 2-Ethyl-N-(4-morpholinobenzyl)-7-(trifluoromethyl)imidazo[1,2-a]pyridine-3-carboxamide], the melting point came out at 174.1 °C. Besides, the MIC in data set [1] fell in the range of 1 to 20 µM (≈ 0.432 to 8.65 µg/mL).

On to `CCc1nc2c(F)cccn2c1C(=O)NCc1ccc(Oc2ccc(OC(F)(F)F)cc2)cc1` [Compound 257, 2-Ethyl-8-fluoro-N-(4-(4-(trifluoromethoxy)phenoxy)benzyl)imidazo[1,2-a]pyridine-3-carboxamide], for which the melting point worked out at 105.6 °C. The MIC in data set [1] was under 1 µM.

Compound `CCc1nc2cc(Cl)ccn2c1C(=O)NCc1ccc(N2CCN(c3ccc(F)cc3)CC2)cc1` (as salt: hydrochloride) [Compound 177, 7-Chloro-2-ethyl-N-(4-(4-(4-fluorophenyl)piperazin-1-yl)benzyl)imidazo[1,2-a]pyridine-3-carboxamide trihydrochloride] showed a melting point of 204.4 to 206.9 °C.

Regarding `CCc1nc2cc(Cl)ccn2c1C(=O)NCc1ccc(-c2ccc[nH]2)cc1` [Compound 136, N-(4-(1H-Pyrrol-2-yl)benzyl)-7-chloro-2-ethylimidazo[1,2-a]pyridine-3-carboxamide], the MIC in data set [2] and in data set [1] was 1 to 20 µM (≈ 0.379 to 7.58 µg/mL) each time.

For `Cc1nc2ccccn2c1C(=O)Nc1ccc(Oc2ccccc2)cc1` [Compound 6, 2-Methyl-N-(4-phenoxyphenyl)imidazo[1,2-a]pyridine-3-carboxamide], the MIC in data set [2] and in data set [1] was over 20 µM throughout.

Turning to `Cc1nc2ccccn2c1C(=O)NCCOc1ccccc1` [Compound 23, 2-Methyl-N-(2-phenoxyethyl)imidazo[1,2-a]pyridine-3-carboxamide], the MIC in data set [2] and in data set [1] was 1 to 20 µM (≈ 0.295 to 5.91 µg/mL) in each case.

On to `O=C(NCc1ccccc1)c1c(-c2ccccc2)nc2ccccn12` [Compound 53, N-Benzyl-2-phenylimidazo[1,2-a]pyridine-3-carboxamide], for which the MIC in data set [2] and in data set [1] was over 20 µM each time.

As to `Cc1nc2ccccn2c1NC(=O)Cc1ccccc1` [Compound 26, N-(2-Methylimidazo[1,2-a]pyridin-3-yl)-2-phenylacetamide], the MIC in data set [2] and in data set [1] was over 20 µM in each case.

Consider `COC(=O)[C@H](Cc1ccccc1)NC(=O)c1c(C)nc2ccccn12` [Compound 25, (S)-Methyl 2-(2-methylimidazo[1,2-a]pyridine-3-carboxamido)-3-phenylpropanoate], for which the MIC in data set [2] and in data set [1] was over 20 µM in each case.

`CCc1nc2ccc(Cl)cn2c1C(=O)NCc1ccc(C(C)(C)C)cc1` [Compound 73]: the MIC in data set [2] and in data set [1] was under 1 µM in each case.

Consider `Cc1nc2ccccn2c1C(=O)NCC1CCCCC1` [Compound 18, N-(Cyclohexylmethyl)-2-methylimidazo[1,2-a]pyridine-3-carboxamide], for which the MIC in data set [2] and in data set [1] was over 20 µM each time.

With `CCc1nc2cc(Cl)ccn2c1C(=O)NCc1ccc(-c2ccc(OC(F)(F)F)cc2)cc1` [Compound 119, 7-Chloro-2-ethyl-N-((4′-(trifluoromethoxy)biphenyl-4-yl)methyl)imidazo[1,2-a]pyridine-3-carboxamide], the MIC in data set [2] and in data set [1] was under 1 µM throughout.

Turning to `CCc1nc2cc(Cl)ccn2c1C(=O)NCc1ccc(-c2ccc(C(F)(F)F)cc2)cc1` [Compound 120, 7-Chloro-2-ethyl-N-((4′-(trifluoromethyl)biphenyl-4-yl)methyl)imidazo[1,2-a]pyridine-3-carboxamide], the MIC in data set [2] and in data set [1] was under 1 µM throughout.

For the compound `CCc1nc2cc(Cl)ccn2c1C(=O)NCc1ccc2ccccc2c1` [Compound 91, 7-Chloro-2-ethyl-N-(naphthalen-2-ylmethyl)imidazo[1,2-a]pyridine-3-carboxamide], the MIC in data set [2] was 1 to 20 µM (≈ 0.364 to 7.28 µg/mL); in data set [1], under 1 µM.

In the case of `CCc1nc2cc(Cl)ccn2c1C(=O)NCc1ccn(-c2ccc(C(F)(F)F)cc2)n1` [Compound 234, 7-Chloro-2-ethyl-N-((1-(4-(trifluoromethyl)phenyl)-1H-pyrazol-3-yl)methyl)imidazo[1,2-a]pyridine-3-carboxamide], the MIC in data set [2] and in data set [1] was 1 to 20 µM (≈ 0.448 to 8.96 µg/mL) throughout.

Regarding `CCc1nc2cc(Cl)ccn2c1C(=O)NCc1ccc(-c2ccccc2C)cc1` [Compound 96, 7-Chloro-2-ethyl-N-((2′-methylbiphenyl-4-yl)methyl)imidazo[1,2-a]pyridine-3-carboxamide], the MIC in data set [2] and in data set [1] was under 1 µM in each case.

As to `CCc1nc2ccc(Cl)cn2c1C(=O)NCc1ccc(OCc2ccc(F)cc2)cc1` [Compound 202, 6-Chloro-2-ethyl-N-(4-(4-fluorobenzyloxy)benzyl)imidazo[1,2-a]pyridine-3-carboxamide], the MIC in data set [2] and in data set [1] was under 1 µM in each case.

Take `CCc1nc2cc(Cl)ccn2c1C(=O)NCc1ccc(-c2ccc(OC)cn2)cc1` [Compound 135, 7-Chloro-2-ethyl-N-(4-(5-methoxypyridin-2-yl)benzyl)imidazo[1,2-a]pyridine-3-carboxamide]: the MIC in data set [2] is under 1 µM; in data set [1], 1 to 20 µM (≈ 0.421 to 8.42 µg/mL).

Take `CCc1nc2ccc(Cl)cn2c1C(=O)NCc1ccc(-c2ccc(C#N)cc2)cc1` [Compound 121, 6-Chloro-N-((4′-cyanobiphenyl-4-yl)methyl)-2-ethylimidazo[1,2-a]pyridine-3-carboxamide]: the MIC in data set [2] and in data set [1] was under 1 µM each time.

For the compound `Cc1nc2c(C(F)(F)F)cccn2c1C(=O)NCc1ccccc1` [Compound 40, N-Benzyl-2-methyl-8-(trifluoromethyl)imidazo[1,2-a]pyridine-3-carboxamide], the MIC in data set [2] and in data set [1] was over 20 µM throughout.

Regarding `CCc1nc2ccc(Cl)cn2c1C(=O)NCc1ccc(N2CCN(Cc3ccc(F)cc3)CC2)cc1` [Compound 171, 6-Chloro-2-ethyl-N-(4-(4-(4-fluorobenzyl)piperazin-1-yl)benzyl)imidazo[1,2-a]pyridine-3-carboxamide], the MIC in data set [2] and in data set [1] was under 1 µM throughout.
